# Active and inactive are the calls of the source.
# Legend:
# [1] = biological target: T1, Delta-type opioid receptor (Homo sapiens, UniProt P41143); test: HTS Image-Based Screen for Antagonists of the DOR Receptor. [Related pubchem assays (depositor defined):AID1777, AID1785, AID1786, AID2133]; type: functional
# [2] = biological target: T2, Mu-type opioid receptor (Homo sapiens, UniProt P35372); test: HTS Image-Based Screen for Agonists of the MOR Receptor. [Related pubchem assays (depositor defined):AID1777, AID1785, AID1786, AID2133]; type: functional
# [3] = biological target: T1, Delta-type opioid receptor; test: HTS Image-Based Screen for Agonists of the DOR Receptor. [Related pubchem assays (depositor defined):AID1777, AID1786, AID2133]; type: functional
# [4] = biological target: T3, Kappa-type opioid receptor (Homo sapiens, UniProt P41145); type: functional
# [5] = biological target: Beta-galactosidase (Escherichia coli, UniProt Q8VNN2); type: functional
# [6] = biological target: T3, Kappa-type opioid receptor; type: functional; remark: listed apart in the source
# [7] = biological target: Microphthalmia-associated transcription factor (Homo sapiens, UniProt O75030); test: TRPM1 promoter luciferase signal decrease, dose response, MITF inhibitor project, cell-based, SK-MEL-5, cherry-picked, set 3 (AID 493073); type: functional
# [8] = tested on: Vero; test: cells; type: functional; conditions: Chlorocebus sabaeus
# [9] = biological target: T3, Kappa-type opioid receptor; test: SAR analysis of small molecule agonists of the kappa opioid receptor via a luminescent beta-arrestin assay. [Related pubchem assays (depositor defined):AID1777, AID1786, AID1966, AID2133, AID2136, AID2348, AID2352, AID2357, AID2359, AID2370, AID2420, AID2478, AID2491, AID2492, AID2493, AID2497, AID2498, AID2500, AID449737, AID488822, AID488842]; type: functional
# [10] = biological target: T2, Mu-type opioid receptor; test: MOR agonists by imaging, SAR follow-up, image-based (AID 2352); type: functional
# [11] = biological target: T1, Delta-type opioid receptor; test: DOR agonists, SAR follow-up, image-based (AID 2370); type: functional
# [12] = biological target: T3, Kappa-type opioid receptor; test: KOR antagonists by imaging, SAR follow-up, image-based (AID 2348); type: functional
# [13] = biological target: T2, Mu-type opioid receptor; test: MOR antagonists, SAR follow-up, image-based (AID 2420); type: functional;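 note: compounds added before stimulation of receptor with agonist DAMGO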
# [14] = biological target: T3, Kappa-type opioid receptor; test: KOR agonist analogs, imaging readout, SAR follow-up, image-based (AID 2359); type: functional
# [15] = biological target: T1, Delta-type opioid receptor; test: DOR antagonists, SAR follow-up, image-based (AID 2357); type: functional
# [16] = biological target: G-protein coupled receptor 35 (Homo sapiens, UniProt Q9HC97); test: SAR Analysis for the identification of Selective Antagonists of ERK1/2 Activity in GPR35-Overexpressing U2OS Cells. [Related pubchem assays: 2079, 2058 ]; type: functional, cell-based
# [17] = biological target: G-protein coupled receptor 55 (Homo sapiens, UniProt Q9Y2T6); test: GPR55 antagonists, SAR follow-up, counter-screen for GPR35 antagonist project, imaging, image-based (AID 2397); type: functional
# [18] = biological target: Melanocortin receptor 4 (Homo sapiens, UniProt P32245); type: functional, cell-based;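 note: Cell-based assay with luminescence read-out, confirmatory dose-response testing for agonist activity of biased ligands at MC4R; human U2OS cells with tagged receptor and beta-arrestin; potency of agonists that increase receptor coupling to beta-arrestin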
# [19] = biological target: Paired box protein Pax-8 (Homo sapiens, UniProt Q06710); test: inhibitors of PAX8-driven TPO luciferase reporter, dose response, RMG-I cells, cherry-pick (AID 687027); type: functional, cell-based;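 note: luciferase reporter driven by Pax8 target thyroperoxidase promoter measured by SteadyGlo luminescence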
# [20] = non-specific cell cytotoxicity, dose response, cytotoxicity control for PAX8 inhibitor project, plate reader, dry powder samples (AID 743021); type: functional, cell-based
# [21] = biological target: T3, Kappa-type opioid receptor; test: SAR analysis of small molecule agonists of the kappa opioid receptor via a luminescent beta-arrestin assay - Set 3. [Related pubchem assays (depositor defined):AID1777, AID1785, AID1786, AID1966, AID2133, AID2136, AID2284, AID2500]; type: functional
# [22] = biological target: T4, Tyrosine-protein phosphatase non-receptor type 7 (Homo sapiens, UniProt P35236); type: functional
# T4 sequence (P35236 whole entry): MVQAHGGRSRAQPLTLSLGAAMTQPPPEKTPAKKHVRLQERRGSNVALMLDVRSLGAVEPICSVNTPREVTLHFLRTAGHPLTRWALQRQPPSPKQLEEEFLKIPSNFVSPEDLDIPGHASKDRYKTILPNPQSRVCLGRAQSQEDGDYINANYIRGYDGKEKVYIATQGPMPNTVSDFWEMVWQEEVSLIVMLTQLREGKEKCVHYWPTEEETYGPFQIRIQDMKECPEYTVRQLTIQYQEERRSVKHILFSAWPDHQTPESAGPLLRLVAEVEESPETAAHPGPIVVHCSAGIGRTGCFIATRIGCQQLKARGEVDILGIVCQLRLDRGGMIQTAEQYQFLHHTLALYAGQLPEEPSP
# [23] = biological target: T5, Tyrosine-protein phosphatase non-receptor type 22 (Homo sapiens, UniProt Q9Y2R2); type: functional
# T5 sequence (Q9Y2R2 whole entry): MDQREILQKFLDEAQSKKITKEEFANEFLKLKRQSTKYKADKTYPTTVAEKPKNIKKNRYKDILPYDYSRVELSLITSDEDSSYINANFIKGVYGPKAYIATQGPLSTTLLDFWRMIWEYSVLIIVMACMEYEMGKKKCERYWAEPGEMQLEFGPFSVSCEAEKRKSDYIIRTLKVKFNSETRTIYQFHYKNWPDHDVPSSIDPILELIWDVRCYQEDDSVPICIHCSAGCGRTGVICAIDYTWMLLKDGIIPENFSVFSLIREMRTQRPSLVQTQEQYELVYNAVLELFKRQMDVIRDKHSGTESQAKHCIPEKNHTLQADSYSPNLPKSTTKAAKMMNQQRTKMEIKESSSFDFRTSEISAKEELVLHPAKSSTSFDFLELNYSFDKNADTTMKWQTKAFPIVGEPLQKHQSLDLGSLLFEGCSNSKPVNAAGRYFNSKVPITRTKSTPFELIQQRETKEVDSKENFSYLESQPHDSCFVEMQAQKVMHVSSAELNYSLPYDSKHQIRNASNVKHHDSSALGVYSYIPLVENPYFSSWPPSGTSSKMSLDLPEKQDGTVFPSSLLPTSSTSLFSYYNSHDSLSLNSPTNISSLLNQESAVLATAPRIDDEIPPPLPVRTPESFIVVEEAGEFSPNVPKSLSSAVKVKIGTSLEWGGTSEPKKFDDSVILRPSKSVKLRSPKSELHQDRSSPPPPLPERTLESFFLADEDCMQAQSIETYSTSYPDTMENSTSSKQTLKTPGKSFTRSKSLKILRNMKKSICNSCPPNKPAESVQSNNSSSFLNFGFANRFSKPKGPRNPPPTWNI
# [24] = biological target: T5, Tyrosine-protein phosphatase non-receptor type 22; type: functional; remark: listed apart in the source
# [25] = biological target: T6, Carboxy-terminal domain RNA polymerase II polypeptide A small phosphatase 1 (Homo sapiens, UniProt Q9GZU7); test: inhibitors of CTDSP1, concentration-response testing, biochemical assay, absorbance-based, actives from ultra-high-throughput screening (AID 540297); type: functional
# T6 sequence (Q9GZU7 whole entry): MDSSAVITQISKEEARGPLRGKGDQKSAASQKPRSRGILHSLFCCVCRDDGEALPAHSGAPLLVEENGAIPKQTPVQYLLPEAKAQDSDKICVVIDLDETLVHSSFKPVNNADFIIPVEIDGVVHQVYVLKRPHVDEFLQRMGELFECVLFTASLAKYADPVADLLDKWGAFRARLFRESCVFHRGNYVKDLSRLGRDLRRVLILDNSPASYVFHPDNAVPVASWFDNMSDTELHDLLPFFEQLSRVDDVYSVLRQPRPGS
# [26] = biological target: T7, Tyrosine-protein phosphatase non-receptor type 11 (Homo sapiens, UniProt Q06124); test: SHP2 phosphatase inhibition, dose response, selectivity assay for STEP inhibitor project, biochemical (AID 602367); type: functional; conditions: read-out: IC50_Mean
# T7 sequence (Q06124 whole entry): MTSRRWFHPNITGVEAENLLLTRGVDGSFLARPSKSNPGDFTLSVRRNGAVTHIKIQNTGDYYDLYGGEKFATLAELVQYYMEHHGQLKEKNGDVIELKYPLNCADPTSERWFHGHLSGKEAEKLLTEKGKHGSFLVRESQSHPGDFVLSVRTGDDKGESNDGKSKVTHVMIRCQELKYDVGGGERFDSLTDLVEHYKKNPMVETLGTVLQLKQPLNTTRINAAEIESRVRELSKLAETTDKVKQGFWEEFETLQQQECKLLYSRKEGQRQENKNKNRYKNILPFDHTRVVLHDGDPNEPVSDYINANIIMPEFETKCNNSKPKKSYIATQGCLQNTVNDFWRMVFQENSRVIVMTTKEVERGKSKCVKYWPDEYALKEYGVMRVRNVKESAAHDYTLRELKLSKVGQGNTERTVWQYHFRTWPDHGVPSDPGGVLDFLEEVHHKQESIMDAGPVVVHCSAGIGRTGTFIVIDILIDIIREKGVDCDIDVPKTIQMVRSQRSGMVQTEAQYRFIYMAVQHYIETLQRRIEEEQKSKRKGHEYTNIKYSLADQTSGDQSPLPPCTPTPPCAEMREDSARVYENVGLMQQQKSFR
# [27] = biological target: T8, Tyrosine-protein phosphatase non-receptor type 5 (Homo sapiens, UniProt P54829); test: STEP phosphatase inhibitors, confirmation, biochemical, fluorescence intensity, uHTS hits (AID 602372); type: functional; conditions: read-out: IC50_Mean
# T8 sequence (P54829 whole entry): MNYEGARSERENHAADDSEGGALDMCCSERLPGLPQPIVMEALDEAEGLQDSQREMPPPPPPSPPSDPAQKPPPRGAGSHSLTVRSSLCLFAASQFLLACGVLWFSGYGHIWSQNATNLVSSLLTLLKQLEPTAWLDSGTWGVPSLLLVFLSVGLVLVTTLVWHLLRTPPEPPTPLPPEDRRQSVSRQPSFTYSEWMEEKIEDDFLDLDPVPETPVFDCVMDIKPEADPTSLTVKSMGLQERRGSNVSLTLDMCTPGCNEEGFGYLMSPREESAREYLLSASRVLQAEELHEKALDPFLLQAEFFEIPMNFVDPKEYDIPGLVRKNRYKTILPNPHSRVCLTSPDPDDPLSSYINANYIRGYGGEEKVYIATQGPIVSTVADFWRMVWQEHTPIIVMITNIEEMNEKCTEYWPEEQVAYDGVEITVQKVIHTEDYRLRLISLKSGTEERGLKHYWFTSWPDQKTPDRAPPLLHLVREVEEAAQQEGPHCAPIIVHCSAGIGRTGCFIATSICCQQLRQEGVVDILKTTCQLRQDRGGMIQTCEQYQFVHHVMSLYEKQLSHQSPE
# [28] = biological target: Dual specificity protein phosphatase 3 (Homo sapiens, UniProt P51452); test: VHR phosphatase inhibition, dose response, selectivity assay for STEP inhibitor project, biochemical (AID 602374); type: functional; conditions: read-out: IC50_Mean
# [29] = biological target: T9, Low molecular weight phosphotyrosine protein phosphatase (Homo sapiens, UniProt P24666); type: functional; conditions: read-out: IC50_Mean
# T9 sequence (P24666 whole entry): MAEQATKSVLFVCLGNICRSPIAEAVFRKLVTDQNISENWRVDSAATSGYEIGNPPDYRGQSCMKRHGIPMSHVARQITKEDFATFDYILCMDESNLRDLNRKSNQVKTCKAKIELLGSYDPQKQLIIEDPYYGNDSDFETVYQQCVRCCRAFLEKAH
# [30] = biological target: T5, Tyrosine-protein phosphatase non-receptor type 22; test: PTPN22 phosphatase inhibition, dose response, selectivity assay for STEP inhibitor project, biochemical (AID 624241); type: functional
# [31] = biological target: T9, Low molecular weight phosphotyrosine protein phosphatase; type: functional; conditions: read-out: IC50_Mean; remark: listed apart in the source
# [32] = biological target: T5, Tyrosine-protein phosphatase non-receptor type 22; test: LYP phosphatase inhibition for selectivity, dose response, selectivity assay for LMPTP inhibitor project, biochemical, fluorescence, LYP catalytic domain (AID 652006); type: functional; conditions: read-out: IC50_Mean
# T1 sequence (P41143 whole entry): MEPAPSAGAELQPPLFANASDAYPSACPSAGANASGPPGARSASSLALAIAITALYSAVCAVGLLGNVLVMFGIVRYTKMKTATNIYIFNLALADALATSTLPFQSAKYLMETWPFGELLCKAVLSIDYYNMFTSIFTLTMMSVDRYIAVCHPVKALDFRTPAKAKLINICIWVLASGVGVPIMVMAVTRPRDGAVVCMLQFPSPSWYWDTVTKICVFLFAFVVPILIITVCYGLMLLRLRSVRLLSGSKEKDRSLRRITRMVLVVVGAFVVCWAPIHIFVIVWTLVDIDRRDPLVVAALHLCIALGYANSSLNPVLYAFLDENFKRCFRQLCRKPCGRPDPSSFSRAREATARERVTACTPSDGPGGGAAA
# T2 sequence (P35372 whole entry): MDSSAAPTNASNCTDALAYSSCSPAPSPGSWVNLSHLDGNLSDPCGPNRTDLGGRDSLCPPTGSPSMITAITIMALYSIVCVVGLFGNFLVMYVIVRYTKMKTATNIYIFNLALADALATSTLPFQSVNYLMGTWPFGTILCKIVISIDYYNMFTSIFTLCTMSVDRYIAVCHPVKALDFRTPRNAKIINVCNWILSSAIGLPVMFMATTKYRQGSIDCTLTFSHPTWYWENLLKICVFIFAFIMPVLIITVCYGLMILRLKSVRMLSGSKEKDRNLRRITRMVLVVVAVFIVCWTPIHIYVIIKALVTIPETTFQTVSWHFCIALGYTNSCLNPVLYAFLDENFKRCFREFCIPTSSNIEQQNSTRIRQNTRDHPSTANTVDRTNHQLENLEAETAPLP
# T3 sequence (P41145 whole entry): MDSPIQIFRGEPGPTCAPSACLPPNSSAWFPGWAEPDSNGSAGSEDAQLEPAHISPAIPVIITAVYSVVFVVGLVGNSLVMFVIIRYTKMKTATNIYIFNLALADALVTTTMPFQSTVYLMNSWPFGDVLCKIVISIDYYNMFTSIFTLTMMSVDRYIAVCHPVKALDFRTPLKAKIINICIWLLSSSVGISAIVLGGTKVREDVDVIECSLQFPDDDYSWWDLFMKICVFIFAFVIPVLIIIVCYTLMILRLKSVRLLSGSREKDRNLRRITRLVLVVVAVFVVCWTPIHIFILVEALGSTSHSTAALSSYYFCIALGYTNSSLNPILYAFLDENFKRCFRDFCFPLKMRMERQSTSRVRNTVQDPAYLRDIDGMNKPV
# Chain of G-protein coupled receptor 55 (Q9Y2T6 whole entry): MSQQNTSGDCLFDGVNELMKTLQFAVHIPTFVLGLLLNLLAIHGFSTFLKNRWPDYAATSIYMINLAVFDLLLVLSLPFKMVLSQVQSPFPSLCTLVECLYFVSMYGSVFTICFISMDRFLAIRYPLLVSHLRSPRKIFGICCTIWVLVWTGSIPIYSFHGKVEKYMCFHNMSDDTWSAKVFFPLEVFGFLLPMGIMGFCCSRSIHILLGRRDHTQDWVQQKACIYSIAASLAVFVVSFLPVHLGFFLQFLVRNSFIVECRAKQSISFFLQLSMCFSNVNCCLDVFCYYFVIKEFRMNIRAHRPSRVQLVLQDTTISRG
# Chain of G-protein coupled receptor 35 (Q9HC97 whole entry): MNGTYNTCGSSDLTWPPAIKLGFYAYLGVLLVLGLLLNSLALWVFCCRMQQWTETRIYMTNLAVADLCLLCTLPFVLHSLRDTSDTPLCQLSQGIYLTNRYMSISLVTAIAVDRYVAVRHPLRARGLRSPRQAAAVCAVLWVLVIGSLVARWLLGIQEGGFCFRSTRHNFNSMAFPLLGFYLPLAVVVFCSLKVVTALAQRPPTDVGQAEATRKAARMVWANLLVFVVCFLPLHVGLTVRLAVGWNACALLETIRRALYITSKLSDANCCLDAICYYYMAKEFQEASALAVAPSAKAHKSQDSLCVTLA
# Chain of Melanocortin receptor 4 (P32245 whole entry): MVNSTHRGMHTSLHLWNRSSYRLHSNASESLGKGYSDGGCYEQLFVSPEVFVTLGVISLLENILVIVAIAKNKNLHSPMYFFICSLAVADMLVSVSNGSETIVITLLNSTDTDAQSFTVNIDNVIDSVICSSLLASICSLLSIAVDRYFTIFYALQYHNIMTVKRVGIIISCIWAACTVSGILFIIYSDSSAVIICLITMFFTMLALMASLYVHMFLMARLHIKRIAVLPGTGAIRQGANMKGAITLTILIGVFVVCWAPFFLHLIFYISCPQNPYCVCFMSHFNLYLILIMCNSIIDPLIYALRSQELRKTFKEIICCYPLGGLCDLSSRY
# Chain of Paired box protein Pax-8 (Q06710 whole entry): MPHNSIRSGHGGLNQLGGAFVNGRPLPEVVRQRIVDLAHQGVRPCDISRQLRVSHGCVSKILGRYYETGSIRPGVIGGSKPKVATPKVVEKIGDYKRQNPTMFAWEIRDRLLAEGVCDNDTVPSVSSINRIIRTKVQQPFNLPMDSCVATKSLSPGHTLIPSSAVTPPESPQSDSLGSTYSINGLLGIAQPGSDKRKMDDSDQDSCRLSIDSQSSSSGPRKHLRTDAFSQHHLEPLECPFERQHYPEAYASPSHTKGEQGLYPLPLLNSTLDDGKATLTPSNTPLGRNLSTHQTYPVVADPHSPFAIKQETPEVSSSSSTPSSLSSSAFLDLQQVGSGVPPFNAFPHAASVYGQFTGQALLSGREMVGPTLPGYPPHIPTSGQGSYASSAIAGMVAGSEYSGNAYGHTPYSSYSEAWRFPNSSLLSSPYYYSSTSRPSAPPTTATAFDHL
# Chain of Dual specificity protein phosphatase 3 (P51452 whole entry): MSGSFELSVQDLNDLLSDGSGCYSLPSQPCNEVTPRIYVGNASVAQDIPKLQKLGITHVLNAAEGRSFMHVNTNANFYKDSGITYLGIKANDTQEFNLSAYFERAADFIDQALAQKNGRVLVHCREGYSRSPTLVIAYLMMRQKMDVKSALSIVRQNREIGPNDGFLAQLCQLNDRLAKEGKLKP
# Chain of Microphthalmia-associated transcription factor (O75030 whole entry): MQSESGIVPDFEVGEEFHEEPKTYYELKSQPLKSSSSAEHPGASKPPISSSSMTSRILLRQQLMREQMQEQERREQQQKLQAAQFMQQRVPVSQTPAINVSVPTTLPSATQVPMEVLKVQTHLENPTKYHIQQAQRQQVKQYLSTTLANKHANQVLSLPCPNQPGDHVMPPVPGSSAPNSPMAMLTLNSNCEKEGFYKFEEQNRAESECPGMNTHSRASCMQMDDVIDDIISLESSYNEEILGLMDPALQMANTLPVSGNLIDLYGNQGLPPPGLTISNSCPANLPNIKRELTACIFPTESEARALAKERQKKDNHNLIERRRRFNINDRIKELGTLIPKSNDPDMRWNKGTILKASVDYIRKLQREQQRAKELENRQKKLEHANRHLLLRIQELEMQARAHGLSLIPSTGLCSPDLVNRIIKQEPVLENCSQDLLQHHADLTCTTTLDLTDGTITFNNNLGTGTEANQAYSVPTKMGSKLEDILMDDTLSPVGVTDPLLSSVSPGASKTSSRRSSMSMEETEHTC
# Chain of Beta-galactosidase (Q8VNN2 whole entry): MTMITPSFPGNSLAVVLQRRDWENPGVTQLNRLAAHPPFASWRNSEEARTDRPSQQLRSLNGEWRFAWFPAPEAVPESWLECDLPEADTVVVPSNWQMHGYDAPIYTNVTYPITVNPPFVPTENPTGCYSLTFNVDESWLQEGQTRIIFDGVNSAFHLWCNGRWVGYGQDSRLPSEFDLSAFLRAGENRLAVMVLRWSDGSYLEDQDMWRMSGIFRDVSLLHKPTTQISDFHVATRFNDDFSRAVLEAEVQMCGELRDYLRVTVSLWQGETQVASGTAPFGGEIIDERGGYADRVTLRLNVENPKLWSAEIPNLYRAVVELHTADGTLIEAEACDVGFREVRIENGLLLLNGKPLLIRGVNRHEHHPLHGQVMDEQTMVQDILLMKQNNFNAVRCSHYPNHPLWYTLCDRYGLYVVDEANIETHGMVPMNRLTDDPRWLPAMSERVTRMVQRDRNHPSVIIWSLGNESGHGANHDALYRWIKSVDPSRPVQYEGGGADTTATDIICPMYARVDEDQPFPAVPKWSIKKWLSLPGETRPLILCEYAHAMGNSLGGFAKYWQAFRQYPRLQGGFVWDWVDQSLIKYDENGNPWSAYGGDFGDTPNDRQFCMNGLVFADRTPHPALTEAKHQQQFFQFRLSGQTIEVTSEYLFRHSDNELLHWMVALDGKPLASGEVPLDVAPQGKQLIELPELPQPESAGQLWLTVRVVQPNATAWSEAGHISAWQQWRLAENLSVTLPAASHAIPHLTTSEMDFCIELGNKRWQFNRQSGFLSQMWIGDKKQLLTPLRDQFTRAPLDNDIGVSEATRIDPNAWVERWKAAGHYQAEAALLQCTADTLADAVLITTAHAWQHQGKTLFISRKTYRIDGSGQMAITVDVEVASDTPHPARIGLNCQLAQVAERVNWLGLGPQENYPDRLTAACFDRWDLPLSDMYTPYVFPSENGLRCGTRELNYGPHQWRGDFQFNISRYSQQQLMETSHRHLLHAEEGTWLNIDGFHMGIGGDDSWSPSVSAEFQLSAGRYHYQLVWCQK
structure (smiles),measurement,setting,value
COc1cc(OC)cc(-c2nnc(NC(=O)c3ccc4c(c3)OCCO4)o2)c1,IC50,[1],> 32 µM (inactive)
same,EC50,[2],> 32 µM (inactive)
same,EC50,[3],> 32 µM (inactive)
same,IC50,[4],13.3 µM (active)
same,EC50,[5],> 31.5 µM (inactive)
same,IC50,[6],> 32 µM
CC(C)N=C(NS(=O)(=O)c1ccccc1)C(Cl)(Cl)Cl,AC50,[7],6.76 µM (active)
same,CC50,[8],11.5 µM (active)
COc1ccc(C(=O)CSc2nnc(-c3ccccn3)n2Cc2ccco2)cc1,EC50,[9],> 10 µM (inactive)
same,EC50,[10],> 32 µM (inactive)
same,EC50,[11],> 32 µM (inactive)
same,IC50,[12],> 32 µM (inactive)
same,IC50,[13],> 32 µM (inactive)
same,EC50,[14],> 32 µM (inactive)
same,IC50,[15],> 32 µM (inactive)
Clc1ccc(Cn2ncc3c(N4CCN(c5ccccc5)CC4)ncnc32)cc1,IC50,[16],> 32 µM (not active)
same,IC50,[17],29.3 µM (inactive)
same,EC50,[18],> 89.1 µM (inactive)
same,AC50,[19],8.65 µM (active)
same,AC50,[20],33.9 µM (active)
COc1ccc(Cn2c(SCc3ccc(Cl)c(Cl)c3)nnc2-c2ccccn2)cc1,EC50,[21],17.4 µM (inactive)
O=C(COc1ccc(/C=N/NC(=O)c2ccc(O)cc2)cc1)Nc1cccc([N+](=O)[O-])c1,IC50,[22],49.1 µM (active)
same,IC50,[23],64.7 µM (active)
same,IC50,[24],37.6 µM (active)
same,IC50,[25],2.98 µM (active)
same,IC50,[26],2.41 µM (active)
same,IC50,[27],8.06 µM (active)
same,IC50,[28],3.06 µM (active)
same,IC50,[29],11.2 µM (active)
same,IC50,[30],48.9 µM (inactive)
same,IC50,[31],15.8 µM (active)
same,IC50,[32],11.6 µM (active)
